According to ChEMBL document CHEMBL1201862, “PubChem BioAssay data set” (2004):
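Five compound concentrations were applied to cells in 96-well plates for 48 hours; endpoints were derived by simple linear interpolation of the resulting dose-response curve. GI50 marks 50% less growth.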 Activity calls are given as the source filed them. No stated cut-off is given here; in the data, active = GI50 up to about 1.1 µM and inactive = higher.

Legend:
Assay in all cases: growth of human tumour cells (NCI), 48 h
BT-549 = test system: BT-549
NCI-H522 = test system: NCI-H522
OVCAR-5 = test system: OVCAR-5
HCT-15 = test system: HCT-15
UO-31 = test system: UO-31
SK-MEL-2 = test system: SK-MEL-2
HCT-116 = test system: HCT-116
NCI/ADR-RES = test system: NCI/ADR-RES
SK-OV-3 = test system: SK-OV-3
HOP-62 = test system: HOP-62
MDA-MB-231 = test system: MDA-MB-231
SF-268 = test system: SF-268
K562 = test system: K562
NCI-H460 = test system: NCI-H460
UACC-62 = test system: UACC-62
ACHN = test system: ACHN
OVCAR-8 = test system: OVCAR-8
U-251 = test system: U-251
HCC 2998 = test system: HCC 2998
HL-60 = test system: HL-60

SMILES	GI50 (BT-549)	GI50 (NCI-H522)	GI50 (OVCAR-5)	GI50 (HCT-15) [µM]	GI50 (UO-31)	GI50 (SK-MEL-2)	GI50 (HCT-116)	GI50 (NCI/ADR-RES)	GI50 (SK-OV-3)	GI50 (HOP-62)	GI50 (MDA-MB-231)	GI50 (SF-268)	GI50 (K562)	GI50 (NCI-H460)	GI50 (UACC-62)	GI50 (ACHN)	GI50 (OVCAR-8)	GI50 (U-251)	GI50 (HCC 2998)	GI50 (HL-60)
C[Si](C)(C)CNC(=O)OCc1ccccc1	98.9 µM (inactive)	83.2 µM (inactive)	> 100 µM (inactive)	> 100	> 100 µM (inactive)	> 100 µM (inactive)	> 100 µM (inactive)	75 µM (inactive)	0.962 µM (active)	58.1 µM (inactive)	> 100 µM (inactive)	> 100 µM (inactive)	48.9 µM (inactive)	> 100 µM (inactive)	> 100 µM (inactive)	> 100 µM (inactive)	> 100 µM (inactive)	> 100 µM (inactive)	> 100 µM (inactive)	57.4 µM (inactive)
C/C=C/C(O)P1(=O)N(Cc2ccccc2)[C@@H]2CCCC[C@H]2N1Cc1ccccc1 (stereo not given in full)	> 25 µM (inactive)	> 25 µM (inactive)	> 25 µM (inactive)	> 25	> 25 µM (inactive)	> 25 µM (inactive)	> 25 µM (inactive)	> 25 µM (inactive)	> 25 µM (inactive)	> 25 µM (inactive)	> 25 µM (inactive)	> 25 µM (inactive)	> 25 µM (inactive)	> 25 µM (inactive)	> 25 µM (inactive)	> 25 µM (inactive)	> 25 µM (inactive)	> 25 µM (inactive)	> 25 µM (inactive)	> 25 µM (inactive)
